Data published in US20040176349A1, “Antibacterial composition” (priority 2001, published 2004).
Like-named read-outs stand apart in the source and are kept apart here.

Tests used:
Enterococcus strains = experiment: MIC against Enterococcus strains, summary of Example 1; assay type: cell-based; conditions: for MIC: Enterococcus, vancomycin-susceptible strains and one vancomycin-resistant strain
Description: (§1) The minimum inhibitory concentration (MIC) of the compounds was determined using the microbroth dilution technique in accordance with NCCLS guidelines, employing Mueller-Hinton broth (National Committee for Clinical Laboratory Standards, NCCLS, 1995 “Methods for dilution antimicrobial susceptibility tests for bacteria that grow aerobically”—approved standard M7-A5).
(§2) The compounds were tested in isolation, at different concentrations.

E. faecalis ATCC 10541 = experiment: Checkerboard microdilution MIC with PFOB, Table 2; assay type: cell-based; conditions: for MIC: Enterococcus faecalis, ATCC10541
Text: The aim of the study was to detect any synergy between PFOB and the other antibiotics. For the purposes of the study, synergy was defined in accordance with the FIC (fractional inhibitory concentration) index, as disclosed by Lorian (1991, In “Antibiotics in Laboratory Medicine” 3rd edition, Eds. Williams & Wilkins; esp. p 434-443).

VRE 300 1562 = experiment: MIC, microbroth dilution (NCCLS), Table 1; assay type: cell-based, Enterococcus; conditions: Enterococcus, VRE
Description: as §1, §2

VRE 300 1590 = experiment: MIC, microbroth dilution (NCCLS), Table 1; assay type: cell-based, Enterococcus; conditions: Enterococcus, VRE
Description: as §1, §2

VRE 1662 = experiment: MIC, microbroth dilution (NCCLS), Table 1; assay type: cell-based, Enterococcus; conditions: Enterococcus, VRE
Description: as §1, §2

VRE 300 2043 = experiment: MIC, microbroth dilution (NCCLS), Table 1; assay type: cell-based, Enterococcus; conditions: Enterococcus, VRE
Description: as §1, §2

E. faecium NCTC 7171 = experiment: MIC, microbroth dilution (NCCLS), Table 1; assay type: cell-based; conditions: Enterococcus faecium, NCTC7171
Description: as §1, §2

E. faecalis Phillips = experiment: MIC, microbroth dilution (NCCLS), Table 1; assay type: cell-based; conditions: Enterococcus faecalis
Description: as §1, §2

E. faecalis NCTC 5957 = experiment: MIC, microbroth dilution (NCCLS), Table 1; assay type: cell-based; conditions: Enterococcus faecalis, NCTC5957
Description: as §1, §2

E. faecalis SFZ = experiment: MIC, microbroth dilution (NCCLS), Table 1; assay type: cell-based; conditions: Enterococcus faecalis
Description: as §1, §2

E. hirae ATCC 10541 = experiment: MIC, microbroth dilution (NCCLS), Table 1; assay type: cell-based; conditions: Enterococcus hirae, ATCC10541
Description: as §1, §2

E. faecalis 24592 = experiment: MIC, microbroth dilution (NCCLS), Table 1; assay type: cell-based; conditions: Enterococcus faecalis, 24592
Description: as §1, §2

[1] = test system: E. faecalis SFZ (vancomycin-sensitive isolate, VSE); experiment: Time-kill experiment (viable count); assay type: cell-based; conditions: FIG. 2, ceftazidime alone at 128 mg/L, PFOB alone at 64 mg/L
Text: FIG. 2 is a graph of Log viable count (cfu per ml) against time (in hours) for the VSE isolate in the presence or absence of the drugs. […] The isolates used in the Example are purely illustrative and not especially unusual.

E.faecalis 78097 (van B) = experiment: Checkerboard microdilution MIC with PFOB, Table 2; assay type: cell-based
Summary of the method: (§3)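 Checkerboard microdilution pairing PFOB with other antibiotics. Synergy scored by FIC index: combination FIC <0.5 synergy, 0.5-2.0 indifference, >2 antagonism, with synergy requiring at least a 4-fold reduction for each compound.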

E. faecalis ATCC 29212 = experiment: Checkerboard microdilution MIC with PFOB, Table 2; assay type: cell-based
Summary of the method: as §3

E. faecalis 5659 (vanA) = experiment: Checkerboard microdilution MIC with PFOB, Table 2; assay type: cell-based; conditions: E. faecalis 5659 (vanA)
Summary of the method: as §3

SMILES: CC(C)(O/N=C(\C(=O)N[C@@H]1C(=O)N2C(C(=O)[O-])=C(C[n+]3ccccc3)CS[C@H]12)c1csc(N)n1)C(=O)O [CAZ, ceftazidime]
- MIC (Enterococcus strains; read-out: MIC of CAZ used in conjunction with PFOB, PFOB at 4 mg/L): < 0.06 µg/mL
- MIC (Enterococcus strains; read-out: MIC of CAZ used in isolation): > 128 µg/mL
- reduction in the MIC of CAZ by PFOB (Enterococcus strains; PFOB at 4 mg/L versus CAZ in isolation): about 2,000 fold
- activity in isolation against the Enterococcus strains tested (Enterococcus strains; compound alone, all strains of Table 1, in words): no activity
- MIC of partner antibiotic in the presence of PFOB at 0.5 mg/L (E. faecalis ATCC 10541; E. faecalis ATCC 10541, PFOB 0.5 mg/L): >64 µg/mL
- MIC of partner antibiotic in the presence of PFOB at 1 mg/L (E. faecalis ATCC 10541; E. faecalis ATCC 10541, PFOB 1 mg/L): >64 µg/mL
- MIC of partner antibiotic in the presence of PFOB at 2 mg/L (E. faecalis ATCC 10541; E. faecalis ATCC 10541, PFOB 2 mg/L): >64 µg/mL
- MIC of partner antibiotic in the presence of PFOB at 4 mg/L (E. faecalis ATCC 10541; E. faecalis ATCC 10541, PFOB 4 mg/L): >64 µg/mL
- MIC of partner antibiotic in the presence of PFOB at 8 mg/L (E. faecalis ATCC 10541; E. faecalis ATCC 10541, PFOB 8 mg/L): 8 µg/mL
- MIC of partner antibiotic in the presence of PFOB at 16 mg/L (E. faecalis ATCC 10541; E. faecalis ATCC 10541, PFOB 16 mg/L): 4 µg/mL
- MIC of partner antibiotic in the presence of PFOB at 32 mg/L (E. faecalis ATCC 10541; E. faecalis ATCC 10541, PFOB 32 mg/L): <0.06 µg/mL
- MIC (E. faecalis ATCC 10541; E. faecalis ATCC 10541, optimum synergistic combination of PFOB with the labelled partner, first figure (PFOB), read-out: MIC of PFOB & Partner: PFOB concentration): 8 µg/mL
- MIC (E. faecalis ATCC 10541; E. faecalis ATCC 10541, optimum synergistic combination with PFOB, second figure (partner), read-out: MIC of PFOB & Partner: Partner concentration): 8 µg/mL
- MIC (E. faecalis ATCC 10541; E. faecalis ATCC 10541, partner antibiotic alone, read-out: MIC (alone) of Partner): > 64 µg/mL
- synergy with PFOB (E. faecalis ATCC 10541; checkerboard, E. faecium ATCC 10541 (as named), vancomycin-susceptible, in words): marked synergy
- MIC (VRE 300 1562): > 128 µg/mL
- MIC (VRE 300 1590): > 128 µg/mL
- MIC (VRE 1662): > 128 µg/mL
- MIC (VRE 300 2043): > 128 µg/mL
- MIC (E. faecium NCTC 7171): > 128 µg/mL
- MIC (E. faecalis Phillips): > 128 µg/mL
- MIC (E. faecalis NCTC 5957): > 128 µg/mL
- MIC (E. faecalis SFZ): > 128 µg/mL
- MIC (E. hirae ATCC 10541): > 128 µg/mL
- MIC (E. faecalis 24592): > 128 µg/mL
- effect on growth (viable count, time-kill) [1]: some inhibitory effect on growth
- Synergy FIC (E.faecalis 78097 (van B); E.faecalis 78097 (van B), FIC index of PFOB + labelled partner, <0.5 = synergy): 0.156
- MIC of partner antibiotic in the presence of PFOB at 0.5 mg/L (E.faecalis 78097 (van B); E.faecalis 78097 (van B), PFOB 0.5 mg/L): >64 µg/mL
- MIC of partner antibiotic in the presence of PFOB at 1 mg/L (E.faecalis 78097 (van B); E.faecalis 78097 (van B), PFOB 1 mg/L): >64 µg/mL
- MIC of partner antibiotic in the presence of PFOB at 2 mg/L (E.faecalis 78097 (van B); E.faecalis 78097 (van B), PFOB 2 mg/L): 32 µg/mL
- MIC of partner antibiotic in the presence of PFOB at 4 mg/L (E.faecalis 78097 (van B); E.faecalis 78097 (van B), PFOB 4 mg/L): 16 µg/mL
- MIC of partner antibiotic in the presence of PFOB at 8 mg/L (E.faecalis 78097 (van B); E.faecalis 78097 (van B), PFOB 8 mg/L): 16 µg/mL
- MIC of partner antibiotic in the presence of PFOB at 16 mg/L (E.faecalis 78097 (van B); E.faecalis 78097 (van B), PFOB 16 mg/L): 8 µg/mL
- MIC of partner antibiotic in the presence of PFOB at 32 mg/L (E.faecalis 78097 (van B); E.faecalis 78097 (van B), PFOB 32 mg/L): 4 µg/mL
- MIC of PFOB & Partner: Partner concentration (E.faecalis 78097 (van B); E.faecalis 78097 (van B), optimum synergistic combination with PFOB, second figure (partner)): 16 µg/mL
- MIC (E.faecalis 78097 (van B); Enterococcus faecalis, E.faecalis 78097 (van B), partner antibiotic alone, read-out: MIC (alone) of Partner): > 64 µg/mL
- synergy with PFOB (E.faecalis 78097 (van B); checkerboard, E. faecalis 78097, vanB-mediated vancomycin resistance, in words): Synergy was also observed
- Synergy FIC (E. faecalis ATCC 29212; E. faecalis ATCC 29212, FIC index of PFOB + labelled partner, <0.5 = synergy): 0.188
- MIC of partner antibiotic in the presence of PFOB at 0.5 mg/L (E. faecalis ATCC 29212; E. faecalis ATCC 29212, PFOB 0.5 mg/L): >64 µg/mL
- MIC of partner antibiotic in the presence of PFOB at 1 mg/L (E. faecalis ATCC 29212; E. faecalis ATCC 29212, PFOB 1 mg/L): >64 µg/mL
- MIC of partner antibiotic in the presence of PFOB at 2 mg/L (E. faecalis ATCC 29212; E. faecalis ATCC 29212, PFOB 2 mg/L): >64 µg/mL
- MIC of partner antibiotic in the presence of PFOB at 4 mg/L (E. faecalis ATCC 29212; E. faecalis ATCC 29212, PFOB 4 mg/L): 32 µg/mL
- MIC of partner antibiotic in the presence of PFOB at 8 mg/L (E. faecalis ATCC 29212; E. faecalis ATCC 29212, PFOB 8 mg/L): 16 µg/mL
- MIC of partner antibiotic in the presence of PFOB at 16 mg/L (E. faecalis ATCC 29212; E. faecalis ATCC 29212, PFOB 16 mg/L): 8 µg/mL
- MIC of partner antibiotic in the presence of PFOB at 32 mg/L (E. faecalis ATCC 29212; E. faecalis ATCC 29212, PFOB 32 mg/L): 2 µg/mL
- MIC (E. faecalis ATCC 29212; Enterococcus faecalis, ATCC29212, E. faecalis ATCC 29212, partner antibiotic alone, read-out: MIC (alone) of Partner): > 64 µg/mL
- synergy with PFOB (E. faecalis ATCC 29212; checkerboard, E. faecalis ATCC 29212, vancomycin-susceptible, in words): marked synergy
- MIC of partner antibiotic in the presence of PFOB at 0.5 mg/L (E. faecalis 5659 (vanA); PFOB 0.5 mg/L): >64 µg/mL
- MIC of partner antibiotic in the presence of PFOB at 1 mg/L (E. faecalis 5659 (vanA); PFOB 1 mg/L): >64 µg/mL
- MIC of partner antibiotic in the presence of PFOB at 2 mg/L (E. faecalis 5659 (vanA); PFOB 2 mg/L): >64 µg/mL
- MIC of partner antibiotic in the presence of PFOB at 4 mg/L (E. faecalis 5659 (vanA); PFOB 4 mg/L): >64 µg/mL
- MIC of partner antibiotic in the presence of PFOB at 8 mg/L (E. faecalis 5659 (vanA); PFOB 8 mg/L): >64 µg/mL
- MIC of partner antibiotic in the presence of PFOB at 16 mg/L (E. faecalis 5659 (vanA); PFOB 16 mg/L): >64 µg/mL
- MIC of partner antibiotic in the presence of PFOB at 32 mg/L (E. faecalis 5659 (vanA); PFOB 32 mg/L): 0.25 µg/mL
- MIC (E. faecalis 5659 (vanA); Enterococcus faecalis, partner antibiotic alone, read-out: MIC (alone) of Partner): > 64 µg/mL
